Series [1] concerns the target PKC thetha (PKCq) (Homo sapiens, UniProt Q04759). The series is described as follows: In vitro kinase assay, PKC thetha. It counts as biochemical. The conditions noted are these: 10 μM ATP. The text has this: . The IC50 concentrations of these drugs in inhibiting PKC kinase activity are provided in Supplementary Table 4.
(§1) Supplementary Table 4. In vitro kinase assay showing the IC 50 concentration of ENDX and
(§2) of the 12 PKC family members.
*: not available due to no inhibition or compound activity that could not be fit to an IC50 curve.
Staurosporine serves as the positive control.
(§3) (1 picture or pasted object on this page, not shown here)

For series [2] the following is noted: phase I, cited from earlier work; for Cmax: read-out: Peak serum concentration (Cmax).
Series [3] concerns the target PKC gamma (PKCg) (Homo sapiens, UniProt P05129). Briefly: In vitro kinase assay, PKC gamma. As to conditions: 10 μM ATP. It counts as biochemical.
Description: as §1, §2, §3

The target of series [4] is PKC mu (PKCm/PRKD1) (Homo sapiens, UniProt Q15139). Briefly: In vitro kinase assay, PKC mu. As to conditions: 10 μM ATP. It counts as biochemical.
Sequence of PKC mu (PKCm/PRKD1) (Q15139 whole entry): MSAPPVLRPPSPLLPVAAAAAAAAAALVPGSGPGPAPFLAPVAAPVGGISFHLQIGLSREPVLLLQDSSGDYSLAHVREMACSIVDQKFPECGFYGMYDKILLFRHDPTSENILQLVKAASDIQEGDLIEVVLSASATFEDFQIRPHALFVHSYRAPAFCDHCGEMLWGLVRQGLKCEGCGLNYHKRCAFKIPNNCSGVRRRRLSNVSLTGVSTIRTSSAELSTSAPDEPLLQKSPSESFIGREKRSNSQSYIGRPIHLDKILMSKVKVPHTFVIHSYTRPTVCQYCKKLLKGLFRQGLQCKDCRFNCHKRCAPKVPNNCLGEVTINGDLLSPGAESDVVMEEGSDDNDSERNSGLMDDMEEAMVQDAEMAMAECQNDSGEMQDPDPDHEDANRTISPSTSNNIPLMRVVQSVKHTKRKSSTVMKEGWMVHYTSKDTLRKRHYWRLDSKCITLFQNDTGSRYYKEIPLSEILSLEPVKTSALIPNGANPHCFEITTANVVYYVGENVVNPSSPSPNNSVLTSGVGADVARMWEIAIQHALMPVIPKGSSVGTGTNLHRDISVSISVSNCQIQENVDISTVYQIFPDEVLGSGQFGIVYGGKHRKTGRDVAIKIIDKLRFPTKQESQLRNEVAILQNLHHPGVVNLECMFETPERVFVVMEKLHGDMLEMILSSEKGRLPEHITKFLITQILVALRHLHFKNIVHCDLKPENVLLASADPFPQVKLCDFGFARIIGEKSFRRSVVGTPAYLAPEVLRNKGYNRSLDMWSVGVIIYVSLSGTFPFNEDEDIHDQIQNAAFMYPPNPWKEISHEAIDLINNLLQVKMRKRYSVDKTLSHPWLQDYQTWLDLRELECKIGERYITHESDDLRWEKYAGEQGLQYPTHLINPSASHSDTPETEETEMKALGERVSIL
Description: as §1, §2, §3

In series [5] the test system is T47D-LTED cells. Briefly: IncuCyte Annexin V apoptosis assay, T47D-LTED. The conditions noted are these: CSS medium, 48 h; 5 µM. It counts as cell-based, human. The protocol:
MCF7AC1 and T47D-LTED cells were plated at a density of 2000 cells per well in CSS medium for 24 h. Cells were then co-treated for 48 h with vehicle or drug, IncuCyte Annexin V green reagent (#4642, 1:300), an early-stage apoptosis marker, and IncuCyte NucLight rapid red reagent (#4717, 1:500), a dye that stains all cell nuclei red, in CSS medium. MCF7AC1^caAKT cells were plated at a cell density of 2000 cells per well in CSS medium in the absence or presence of cumate for 48 h and then co-treated with vehicle or drug, Annexin V green and NucLight rapid red reagents in the absence or presence of cumate for an additional 48 h in CSS medium.
Supplementary Figure 6. […] Cell viability is assessed by the crystal violet assay. b, MCF7AC1 cells were co-treated with vehicle control or 0.01, 0.1 and 5 µM MK-2206 and IncuCyte Annexin V green and NucLight rapid red reagents in CSS medi um for 48 hours. […]
Cells were plated at a density of 2000 cells per well. c, MCF7AC1 cells were treated with vehicle control or 0.01, 0.1 and 5 µM MK-2206 in CSS medium for 24 hours. […] Cell viability is assessed by the crystal violet assay. f, Parental T47D and T47D-LTED cells were processed for protein lysates. […] Percentage of cells undergoing apoptosis was calculated as mentioned in b. i, T47D-LTED cells were treated with vehicle control or 0.01, 0.1 and 5 µM MK -2206 in CSS medium for 24 hours . […]

The target in series [6] is PKCβ1 (Homo sapiens, UniProt P05771). Briefly: Surface plasmon resonance (SPR) binding to immobilized PKCβ1. As to conditions: 100–8000 nM ENDX; no saturation, accurate KD could not be established. On the procedure: Binding assays were performed at 25 °C on a Biacore T200 biosensor (GE healthcare). Purified PKCβ1 protein were immobilized on a CM5 S sensor chip using amino coupling and immobilization buffer (10 mM HEPES, 150 mM NaCl, pH 7.4, P20 0.01% (w/w)) and acetate pH 5.0 at a flow rate of 10 µL/min and reaching 10,000-12,000 resonance units (RUs). ENDX at concentrations ranging from 0–8000 nM in phosphate buffer (Gibco) with 2% DMSO (v/v) and 0.01% (w/w) P20 were run over the chips at a flow rate of 50 µl/min for 30 s. Binding kinetics were derived from sensograms using Biacore BIA evaluation software (GE). Sensograms were subtracted for background contributions, and affinity constants were derived using a steady-state affinity fitting of a 1:1 interaction model.
Sequence of PKCβ1 (P05771 whole entry): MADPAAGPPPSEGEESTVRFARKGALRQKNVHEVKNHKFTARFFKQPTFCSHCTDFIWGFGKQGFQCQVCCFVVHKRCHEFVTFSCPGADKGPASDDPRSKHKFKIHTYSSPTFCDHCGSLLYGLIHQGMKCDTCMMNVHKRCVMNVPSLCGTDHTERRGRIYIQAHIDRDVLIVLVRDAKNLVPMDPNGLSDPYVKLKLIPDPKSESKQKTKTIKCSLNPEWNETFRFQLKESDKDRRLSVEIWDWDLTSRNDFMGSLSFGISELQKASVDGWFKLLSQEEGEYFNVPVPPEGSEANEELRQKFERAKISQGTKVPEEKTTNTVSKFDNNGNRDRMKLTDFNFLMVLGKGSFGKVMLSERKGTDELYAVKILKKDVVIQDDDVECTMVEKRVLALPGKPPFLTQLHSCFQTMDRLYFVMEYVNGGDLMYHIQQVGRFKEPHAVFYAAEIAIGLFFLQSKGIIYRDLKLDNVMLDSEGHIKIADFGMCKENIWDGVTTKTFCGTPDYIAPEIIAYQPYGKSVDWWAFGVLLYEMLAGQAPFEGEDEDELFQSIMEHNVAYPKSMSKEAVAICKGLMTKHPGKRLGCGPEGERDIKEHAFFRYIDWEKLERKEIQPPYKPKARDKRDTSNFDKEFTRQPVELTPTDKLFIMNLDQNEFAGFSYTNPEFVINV
On the technique in general: SPR reads the build-up and loss of mass on a sensor chip optically.

Data on 1 compound can be found in publication PMC10730845, “Endoxifen downregulates AKT phosphorylation through protein kinase C beta 1 inhibition in ERα+ breast cancer” (NPJ Breast Cancer, 2023).

Each structure is given as a SMILES string. Where two headings read alike, the source gives them in different places.

The term IC50 denotes the concentration at which inhibition is half-maximal. Read a high IC50 as weaker potency.

Sequence of PKC thetha (PKCq) (Q04759 whole entry): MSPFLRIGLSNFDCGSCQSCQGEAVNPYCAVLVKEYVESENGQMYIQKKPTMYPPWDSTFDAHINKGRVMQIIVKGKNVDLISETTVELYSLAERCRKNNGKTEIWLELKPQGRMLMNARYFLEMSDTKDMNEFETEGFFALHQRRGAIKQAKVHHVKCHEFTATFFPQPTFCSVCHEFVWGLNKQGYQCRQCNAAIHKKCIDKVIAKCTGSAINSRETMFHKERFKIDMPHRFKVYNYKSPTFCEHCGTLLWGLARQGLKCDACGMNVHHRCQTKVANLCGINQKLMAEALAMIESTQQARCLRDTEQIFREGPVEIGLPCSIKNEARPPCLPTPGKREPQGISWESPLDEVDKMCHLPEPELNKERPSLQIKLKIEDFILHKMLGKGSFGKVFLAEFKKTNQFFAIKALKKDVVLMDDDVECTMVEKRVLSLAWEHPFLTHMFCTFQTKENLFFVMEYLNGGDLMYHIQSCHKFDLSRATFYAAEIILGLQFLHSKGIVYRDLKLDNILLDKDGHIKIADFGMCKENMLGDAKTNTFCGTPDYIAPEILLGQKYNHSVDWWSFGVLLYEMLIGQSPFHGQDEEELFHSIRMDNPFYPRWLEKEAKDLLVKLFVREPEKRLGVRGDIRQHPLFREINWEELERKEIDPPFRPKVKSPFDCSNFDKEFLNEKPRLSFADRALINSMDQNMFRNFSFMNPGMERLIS

`CC/C(=C(\c1ccc(O)cc1)c1ccc(OCCNC)cc1)c1ccccc1` [ENDX, Z-endoxifen]: the IC50 in series [1] was 41.8 µM; in series [3], 49.7 µM; in series [4], 31.6 µM. Further, the “Peak serum concentration (Cmax)” value in series [2] (Day 28, 80 mg/day) is 913 ± 142 ng/mL; in series [2] (Day 28, 200 mg/day) it was 1641 ± 830 ng/mL. Besides, the Cmax in series [2] (Day 28, 80 mg/day) was 2.44 ± 0.38 µM; in series [2] (Day 28, 200 mg/day), 4.39 ± 2.22 µM. The “Effect on apoptosis (annexin V binding, PARP1 cleavage)” value in series [5] was “induced apoptosis”. Besides, in series [6], the “Binding to PKCβ1 by SPR” value is listed as “binds PKCβ1”.
